Measured values published in patent US20200397332A1, “NON-INVASIVE METHOD AND DEVICE FOR DETERMINING DRUG CONCENTRATIONS IN BLOOD” (priority 2019, published 2020).

Tests used:
[1] = caffeine: one cup of coffee (100 mg caffeine); alcohol: no sign of alcohol in blood; cited from earlier work
clinical [2] = details: human, in vivo, po
Excerpt: FIG. 6 is illustrative of the GM magnetic signal vs time at different pressures by adjusting the pressure applied by the pressure cuff 12 on the arm of the patient. Initially, the cuff pressure is zero and the GM signal is flat. After around 10 seconds, the cuff pressure is increased and after 20 seconds, the cuff pressure reaches approximately 120 mm Hg. […] The GM signal is almost flat from 20 seconds to 60 seconds because the flow of blood through the blood vessel is stopped. When the cuff pressure was released quickly at about 60 seconds, the GM signal returned to the level similar to the initial measurement. […] At the pressure of 120 mm Hg or greater there is, no arterial blood flow and no electrical current. The difference of two levels in the beginning and around 60 seconds gives the absolute value of the magnetic field which is detected by the GM sensor. […]
Basic data for the detected drugs includes the initial dosages of the drug Din which depend on the maximum concentration Cmax in blood at a certain time Tmax. […] The absolute value of the drug concentration is determined based on the measured signal Vs and time Tmax at which the concentration of drug is detected at a maximum value in the blood stream.
The signal Vs was measured at different times after ingestion of the caffeine to verify the time dependence of the drug concentration in blood. […]

[3] = Din=50 mg caffeine; taken from known drug data; cited from earlier work
[4] = Din=500 mg acetaminophen; taken from known drug data; cited from earlier work
clinical [5] = details: human, in vivo, po; remark: listed apart in the source
Method: The Tmax can be identified from this dependence.
FIG. 11 is illustrative of the relative change in charge of the ions inside the arterial blood stream vs time after ingesting 500 mg of acetaminophen. […] The Tmax can be identified from this graph, and is detected as being approximately 30 min.
The initial dosage is Din is ˜500 mg of acetaminophen. The maximum drug concentration in arterial blood stream is 60 mg/L at Din=500 mg ([…]) and Tmax˜30 min from the measurements from the GM sensor.
Vs. The next step is to calculate (Vs0−Vs)0.

SMILES | time after which the level in blood has declined to zero [1] | Tmax (clinical [2]) | Cmax, maximum drug concentration in the arterial blood stream [3] | Cmax, maximum drug concentration in arterial blood stream [4] | Tmax (clinical [5])
CCO [alcohol] | about 12 hours |  |  |  | 
Cn1c(=O)c2c(ncn2C)n(C)c1=O [caffeine] | about 4 hours | ~2 h | about 1 mg/L |  | 
CC(=O)Nc1ccc(O)cc1 [acetaminophen] |  |  |  | 60 µg/mL | ~0.5 h
